From paper PMC4490784, “Compensatory induction of MYC expression by sustained CDK9 inhibition via a BRD4-dependent mechanism” (eLife, 2015)

Experiments:
Assay in all cases: KINOMEscan binding assay
[1] = target: T1, EGFR (Homo sapiens, UniProt P00533)
T1 construct: purchased DiscoveRx KINOMEscan
Summary of the method: (§1)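 Panel of >400 kinases screened by active-site competition binding, compound at 1 and 10 µM.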

[2] = target: T2, TLK2 (Homo sapiens, UniProt Q86UE8); conditions: read-out: % Retention on Solid Support
T2 construct: purchased DiscoveRx KINOMEscan
Summary of the method: as §1

[3] = target: T3, HUNK (Homo sapiens, UniProt P57058); conditions: read-out: % Retention on Solid Support
T3 construct: purchased DiscoveRx KINOMEscan
Summary of the method: as §1

[4] = tested on: EGFR(L747-T751del,Sins)
Summary of the method: as §1

[5] = target: T4, DDR2 (Homo sapiens, UniProt Q16832); conditions: read-out: % Retention on Solid Support
T4 construct: purchased DiscoveRx KINOMEscan
Summary of the method: as §1

[6] = target: T5, STK39 (Homo sapiens, UniProt Q9UEW8); conditions: read-out: % Retention on Solid Support
T5 construct: purchased DiscoveRx KINOMEscan
Summary of the method: as §1

[7] = target: T6, EPHA4 (Homo sapiens, UniProt P54764); conditions: read-out: % Retention on Solid Support
T6 construct: purchased DiscoveRx KINOMEscan
Summary of the method: as §1

[8] = target: T7, MAPKAPK5 (Homo sapiens, UniProt Q8IW41); conditions: read-out: % Retention on Solid Support
T7 construct: purchased DiscoveRx KINOMEscan
T7 sequence (Q8IW41 1-473): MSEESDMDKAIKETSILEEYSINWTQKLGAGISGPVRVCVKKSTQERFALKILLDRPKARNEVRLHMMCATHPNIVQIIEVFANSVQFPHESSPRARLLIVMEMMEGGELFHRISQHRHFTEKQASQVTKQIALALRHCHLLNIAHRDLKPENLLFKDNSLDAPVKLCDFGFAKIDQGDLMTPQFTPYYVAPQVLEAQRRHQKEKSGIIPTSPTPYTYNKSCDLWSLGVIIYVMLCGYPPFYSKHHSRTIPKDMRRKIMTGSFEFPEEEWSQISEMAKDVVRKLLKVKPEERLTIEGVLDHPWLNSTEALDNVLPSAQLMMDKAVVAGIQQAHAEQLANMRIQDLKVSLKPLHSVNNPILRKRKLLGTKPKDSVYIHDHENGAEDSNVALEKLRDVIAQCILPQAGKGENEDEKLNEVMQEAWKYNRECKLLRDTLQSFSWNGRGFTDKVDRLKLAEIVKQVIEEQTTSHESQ
Summary of the method: as §1

[9] = target: T8, p38-gamma (Homo sapiens, UniProt P53778); conditions: read-out: % Retention on Solid Support
T8 construct: purchased DiscoveRx KINOMEscan
Summary of the method: as §1

[10] = target: T9, ASK2 (Homo sapiens, UniProt O95382); conditions: read-out: % Retention on Solid Support
T9 construct: purchased DiscoveRx KINOMEscan
Summary of the method: as §1

[11] = target: T10, DCAMKL3 (Homo sapiens, UniProt Q9C098); conditions: read-out: % Retention on Solid Support
T10 construct: purchased DiscoveRx KINOMEscan
Summary of the method: as §1

[12] = target: T11, ABL1(E255K)-nonphosphorylated (Homo sapiens, UniProt P00519, E255K); conditions: 10 µM i-CDK9; read-out: % Retention on Solid Support
T11 construct: purchased DiscoveRx KINOMEscan
Summary of the method: as §1

[13] = target: T12, NIM1 (Homo sapiens, UniProt Q8IY84); conditions: read-out: % Retention on Solid Support
T12 construct: purchased DiscoveRx KINOMEscan
Summary of the method: as §1

[14] = target: T13, MYLK4 (Homo sapiens, UniProt Q86YV6); conditions: read-out: % Retention on Solid Support
T13 construct: purchased DiscoveRx KINOMEscan
Summary of the method: as §1

[15] = target: RPS6KA4(Kin.Dom.2-C-terminal) (Homo sapiens, UniProt O75676); conditions: read-out: % Retention on Solid Support
Summary of the method: as §1

[16] = target: T14, PRKX (Homo sapiens, UniProt P51817); conditions: read-out: % Retention on Solid Support
T14 construct: purchased DiscoveRx KINOMEscan
Summary of the method: as §1

[17] = target: T15, LYN (Homo sapiens, UniProt P07948); conditions: read-out: % Retention on Solid Support
T15 construct: purchased DiscoveRx KINOMEscan
Summary of the method: as §1

[18] = target: T16, FYN (Homo sapiens, UniProt P06241); conditions: read-out: % Retention on Solid Support
T16 construct: purchased DiscoveRx KINOMEscan
Summary of the method: as §1

[19] = target: T17, EPHA1 (Homo sapiens, UniProt P21709); conditions: read-out: % Retention on Solid Support
T17 construct: purchased DiscoveRx KINOMEscan
Summary of the method: as §1

[20] = target: T18, ABL1(F317L)-phosphorylated (Homo sapiens, UniProt P00519, F317L); conditions: 1 µM i-CDK9; read-out: % Retention on Solid Support
T18 construct: purchased DiscoveRx KINOMEscan
Summary of the method: as §1

[21] = target: T19, RSK1(Kin.Dom.2-C-terminal) (Homo sapiens, UniProt Q15418); conditions: read-out: % Retention on Solid Support
T19 construct: RSK1(Kin.Dom.2-C-terminal); purchased DiscoveRx KINOMEscan
Summary of the method: as §1

[22] = target: T20, ABL1(F317I)-nonphosphorylated (Homo sapiens, UniProt P00519, F317I); conditions: read-out: % Retention on Solid Support
T20 construct: purchased DiscoveRx KINOMEscan
Summary of the method: as §1

[23] = target: T21, FLT4 (Homo sapiens, UniProt P35916); conditions: read-out: % Retention on Solid Support
T21 construct: purchased DiscoveRx KINOMEscan
Summary of the method: as §1

T9 sequence (O95382 whole entry): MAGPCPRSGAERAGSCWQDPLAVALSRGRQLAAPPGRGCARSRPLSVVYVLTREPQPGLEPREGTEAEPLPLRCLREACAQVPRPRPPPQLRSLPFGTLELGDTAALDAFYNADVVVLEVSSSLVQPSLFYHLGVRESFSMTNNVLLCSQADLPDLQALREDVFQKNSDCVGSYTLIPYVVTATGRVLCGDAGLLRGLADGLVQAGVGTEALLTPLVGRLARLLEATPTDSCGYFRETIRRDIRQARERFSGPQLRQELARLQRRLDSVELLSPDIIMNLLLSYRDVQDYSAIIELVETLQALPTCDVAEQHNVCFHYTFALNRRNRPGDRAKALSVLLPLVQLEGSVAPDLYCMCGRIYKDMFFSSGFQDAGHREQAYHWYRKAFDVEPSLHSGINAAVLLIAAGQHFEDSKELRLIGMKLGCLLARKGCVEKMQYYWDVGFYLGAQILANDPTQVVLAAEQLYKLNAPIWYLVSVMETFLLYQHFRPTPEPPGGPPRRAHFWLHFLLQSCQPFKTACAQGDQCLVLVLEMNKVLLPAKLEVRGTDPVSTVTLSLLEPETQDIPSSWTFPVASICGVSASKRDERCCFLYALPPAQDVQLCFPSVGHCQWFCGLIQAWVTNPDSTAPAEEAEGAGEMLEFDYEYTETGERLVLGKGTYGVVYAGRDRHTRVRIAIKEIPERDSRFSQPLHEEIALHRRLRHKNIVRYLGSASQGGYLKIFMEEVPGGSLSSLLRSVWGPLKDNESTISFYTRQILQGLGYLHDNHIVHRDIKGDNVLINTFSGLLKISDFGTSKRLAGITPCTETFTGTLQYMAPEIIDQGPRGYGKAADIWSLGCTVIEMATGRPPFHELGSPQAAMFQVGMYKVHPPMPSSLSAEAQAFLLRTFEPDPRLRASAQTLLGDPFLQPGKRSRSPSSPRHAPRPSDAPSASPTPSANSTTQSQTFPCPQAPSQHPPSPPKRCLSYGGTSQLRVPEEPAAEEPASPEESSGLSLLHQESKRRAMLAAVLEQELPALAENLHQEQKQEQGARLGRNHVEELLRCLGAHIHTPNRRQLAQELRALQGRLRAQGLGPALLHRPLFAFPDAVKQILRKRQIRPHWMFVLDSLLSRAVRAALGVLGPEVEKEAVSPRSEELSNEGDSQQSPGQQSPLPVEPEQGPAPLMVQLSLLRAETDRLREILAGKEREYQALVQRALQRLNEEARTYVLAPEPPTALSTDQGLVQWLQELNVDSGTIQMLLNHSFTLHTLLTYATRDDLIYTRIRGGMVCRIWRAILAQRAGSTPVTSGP
T17 sequence (P21709 26-976): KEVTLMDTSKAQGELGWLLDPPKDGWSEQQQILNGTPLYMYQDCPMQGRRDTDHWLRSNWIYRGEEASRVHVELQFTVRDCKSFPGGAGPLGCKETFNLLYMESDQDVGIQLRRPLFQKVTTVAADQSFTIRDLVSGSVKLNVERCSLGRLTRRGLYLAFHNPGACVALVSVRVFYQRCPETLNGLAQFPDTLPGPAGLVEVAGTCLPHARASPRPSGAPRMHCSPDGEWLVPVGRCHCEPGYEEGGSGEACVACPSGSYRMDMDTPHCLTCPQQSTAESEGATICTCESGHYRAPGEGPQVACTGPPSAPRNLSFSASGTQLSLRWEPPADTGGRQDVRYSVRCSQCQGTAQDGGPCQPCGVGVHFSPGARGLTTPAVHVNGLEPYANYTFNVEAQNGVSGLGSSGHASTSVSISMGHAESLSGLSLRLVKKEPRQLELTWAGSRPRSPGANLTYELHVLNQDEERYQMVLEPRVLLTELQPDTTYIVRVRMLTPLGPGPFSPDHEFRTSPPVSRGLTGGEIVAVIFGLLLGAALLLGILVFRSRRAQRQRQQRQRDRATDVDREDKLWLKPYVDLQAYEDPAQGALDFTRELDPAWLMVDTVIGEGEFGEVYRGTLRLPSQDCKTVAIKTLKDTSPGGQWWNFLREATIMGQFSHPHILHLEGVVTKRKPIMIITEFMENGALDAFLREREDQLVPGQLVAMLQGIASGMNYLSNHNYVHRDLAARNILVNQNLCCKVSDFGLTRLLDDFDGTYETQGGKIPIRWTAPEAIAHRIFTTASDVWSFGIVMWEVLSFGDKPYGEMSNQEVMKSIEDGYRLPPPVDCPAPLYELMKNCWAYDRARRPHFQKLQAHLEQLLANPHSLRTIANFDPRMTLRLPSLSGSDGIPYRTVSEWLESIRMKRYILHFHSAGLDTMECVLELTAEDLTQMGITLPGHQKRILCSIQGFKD
T1 sequence (P00533 25-1210): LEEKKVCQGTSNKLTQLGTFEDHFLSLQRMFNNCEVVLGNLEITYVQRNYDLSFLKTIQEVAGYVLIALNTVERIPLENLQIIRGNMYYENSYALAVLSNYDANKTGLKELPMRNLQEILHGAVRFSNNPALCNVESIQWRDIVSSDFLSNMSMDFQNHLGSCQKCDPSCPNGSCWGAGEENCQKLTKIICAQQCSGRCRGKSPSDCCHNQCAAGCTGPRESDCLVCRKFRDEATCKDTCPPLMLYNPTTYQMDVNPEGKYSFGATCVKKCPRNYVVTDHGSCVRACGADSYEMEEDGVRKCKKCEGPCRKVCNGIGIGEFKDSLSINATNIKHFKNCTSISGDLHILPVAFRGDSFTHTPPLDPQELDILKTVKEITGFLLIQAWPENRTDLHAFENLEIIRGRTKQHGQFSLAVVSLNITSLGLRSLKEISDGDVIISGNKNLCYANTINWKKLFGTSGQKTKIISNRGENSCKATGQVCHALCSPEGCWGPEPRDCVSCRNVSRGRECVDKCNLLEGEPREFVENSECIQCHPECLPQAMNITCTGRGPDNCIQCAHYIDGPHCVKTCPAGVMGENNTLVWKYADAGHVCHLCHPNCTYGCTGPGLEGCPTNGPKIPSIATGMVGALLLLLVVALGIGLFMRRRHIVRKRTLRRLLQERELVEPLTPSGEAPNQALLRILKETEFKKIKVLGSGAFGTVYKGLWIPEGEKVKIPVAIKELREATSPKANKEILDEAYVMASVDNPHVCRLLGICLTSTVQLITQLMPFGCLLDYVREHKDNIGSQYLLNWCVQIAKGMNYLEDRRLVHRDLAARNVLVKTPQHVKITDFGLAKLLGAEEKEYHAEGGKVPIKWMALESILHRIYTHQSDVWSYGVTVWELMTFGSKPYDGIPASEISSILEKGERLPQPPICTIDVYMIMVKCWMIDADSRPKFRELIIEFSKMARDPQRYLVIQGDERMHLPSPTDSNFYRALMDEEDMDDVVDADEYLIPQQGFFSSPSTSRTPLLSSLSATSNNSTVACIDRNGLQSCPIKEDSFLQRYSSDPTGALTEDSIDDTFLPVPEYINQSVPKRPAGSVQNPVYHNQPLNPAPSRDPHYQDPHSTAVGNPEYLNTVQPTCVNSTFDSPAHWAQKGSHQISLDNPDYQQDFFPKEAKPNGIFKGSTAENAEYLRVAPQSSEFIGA
T14 sequence (P51817 whole entry): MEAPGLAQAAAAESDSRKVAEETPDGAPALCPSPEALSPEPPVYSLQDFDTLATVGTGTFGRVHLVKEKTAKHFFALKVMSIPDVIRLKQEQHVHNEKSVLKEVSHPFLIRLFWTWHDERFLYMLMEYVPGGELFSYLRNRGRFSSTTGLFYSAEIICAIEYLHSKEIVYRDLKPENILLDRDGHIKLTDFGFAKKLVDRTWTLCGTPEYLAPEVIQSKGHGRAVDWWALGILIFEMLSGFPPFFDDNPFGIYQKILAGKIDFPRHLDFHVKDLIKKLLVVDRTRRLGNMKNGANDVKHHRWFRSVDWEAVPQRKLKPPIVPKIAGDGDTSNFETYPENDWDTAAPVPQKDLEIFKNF
T21 sequence (P35916 25-1363): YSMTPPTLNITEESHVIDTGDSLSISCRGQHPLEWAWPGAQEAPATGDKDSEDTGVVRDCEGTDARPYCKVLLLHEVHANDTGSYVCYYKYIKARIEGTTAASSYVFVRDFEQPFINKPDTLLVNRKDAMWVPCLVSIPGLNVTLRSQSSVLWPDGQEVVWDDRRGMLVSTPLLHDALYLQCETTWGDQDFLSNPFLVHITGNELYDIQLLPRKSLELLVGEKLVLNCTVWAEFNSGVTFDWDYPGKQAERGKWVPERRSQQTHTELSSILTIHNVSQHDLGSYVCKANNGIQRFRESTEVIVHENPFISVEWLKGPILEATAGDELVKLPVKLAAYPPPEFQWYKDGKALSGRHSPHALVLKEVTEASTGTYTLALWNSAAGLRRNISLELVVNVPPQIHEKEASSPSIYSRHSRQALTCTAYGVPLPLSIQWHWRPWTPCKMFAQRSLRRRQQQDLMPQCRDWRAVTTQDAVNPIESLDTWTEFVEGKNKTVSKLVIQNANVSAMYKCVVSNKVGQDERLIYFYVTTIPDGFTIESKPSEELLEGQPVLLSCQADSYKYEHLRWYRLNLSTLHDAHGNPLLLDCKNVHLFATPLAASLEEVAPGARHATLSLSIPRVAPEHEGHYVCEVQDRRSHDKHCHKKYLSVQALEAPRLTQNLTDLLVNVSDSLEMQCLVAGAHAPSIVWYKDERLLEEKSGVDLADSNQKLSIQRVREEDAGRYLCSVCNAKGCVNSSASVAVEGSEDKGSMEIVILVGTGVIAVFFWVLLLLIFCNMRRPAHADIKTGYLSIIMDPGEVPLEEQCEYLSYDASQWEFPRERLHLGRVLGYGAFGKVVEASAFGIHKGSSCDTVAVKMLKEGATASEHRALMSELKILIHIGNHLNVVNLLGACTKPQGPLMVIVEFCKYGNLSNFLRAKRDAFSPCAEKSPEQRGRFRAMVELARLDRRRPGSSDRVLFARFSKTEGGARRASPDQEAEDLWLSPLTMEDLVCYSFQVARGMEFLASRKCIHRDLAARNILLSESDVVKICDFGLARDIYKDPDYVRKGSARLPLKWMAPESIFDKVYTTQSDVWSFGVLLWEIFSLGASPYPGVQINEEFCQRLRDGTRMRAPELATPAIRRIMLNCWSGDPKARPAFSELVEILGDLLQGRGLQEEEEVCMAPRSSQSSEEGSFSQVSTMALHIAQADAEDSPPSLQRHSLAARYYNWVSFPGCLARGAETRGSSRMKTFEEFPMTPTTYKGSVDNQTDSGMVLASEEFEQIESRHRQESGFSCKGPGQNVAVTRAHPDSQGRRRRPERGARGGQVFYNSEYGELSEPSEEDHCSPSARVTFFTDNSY

SMILES: N[C@H]1CC[C@H](Nc2cc(-c3cccc(NCc4cccc(F)c4)n3)c(Cl)cn2)CC1 [i-CDK9, N2′-(trans-4-aminocyclohexyl)-5′-chloro-N6-(3-fluorobenzyl)-2,4′-bipyridine-2′,6-diamine]
- % Retention on Solid Support ([1]; 1 µM i-CDK9): 4.7%
- % Retention on Solid Support ([1]; 10 µM i-CDK9): 100%
- remaining binding at 1 µM ([2]; 1 µM i-CDK9): 100%
- remaining binding at 10 µM ([2]; 10 µM i-CDK9): 100%
- remaining binding at 1 µM ([3]; 1 µM i-CDK9): 86%
- remaining binding at 10 µM ([3]; 10 µM i-CDK9): 52%
- % Retention on Solid Support ([4]; 1 µM i-CDK9): 82%
- % Retention on Solid Support ([4]; 10 µM i-CDK9): 61%
- remaining binding at 1 µM ([5]; 1 µM i-CDK9): 100%
- remaining binding at 10 µM ([5]; 10 µM i-CDK9): 92%
- remaining binding at 1 µM ([6]; 1 µM i-CDK9): 100%
- remaining binding at 10 µM ([6]; 10 µM i-CDK9): 77%
- remaining binding at 1 µM ([7]; 1 µM i-CDK9): 100%
- remaining binding at 10 µM ([7]; 10 µM i-CDK9): 89%
- remaining binding at 1 µM ([8]; 1 µM i-CDK9): 100%
- remaining binding at 10 µM ([8]; 10 µM i-CDK9): 94%
- remaining binding at 1 µM ([9]; 1 µM i-CDK9): 100%
- remaining binding at 10 µM ([9]; 10 µM i-CDK9): 100%
- remaining binding at 1 µM ([10]; 1 µM i-CDK9): 100%
- remaining binding at 10 µM ([10]; 10 µM i-CDK9): 92%
- remaining binding at 1 µM ([11]; 1 µM i-CDK9): 100%
- remaining binding at 10 µM ([11]; 10 µM i-CDK9): 63%
- remaining binding at 10 µM [12]: 100%
- remaining binding at 1 µM ([13]; 1 µM i-CDK9): 100%
- remaining binding at 10 µM ([13]; 10 µM i-CDK9): 100%
- remaining binding at 1 µM ([14]; 1 µM i-CDK9): 94%
- remaining binding at 10 µM ([14]; 10 µM i-CDK9): 73%
- remaining binding at 1 µM ([15]; 1 µM i-CDK9): 100%
- remaining binding at 10 µM ([15]; 10 µM i-CDK9): 74%
- remaining binding at 1 µM ([16]; 1 µM i-CDK9): 100%
- remaining binding at 10 µM ([16]; 10 µM i-CDK9): 90%
- remaining binding at 1 µM ([17]; 1 µM i-CDK9): 100%
- remaining binding at 10 µM ([17]; 10 µM i-CDK9): 81%
- remaining binding at 1 µM ([18]; 1 µM i-CDK9): 69%
- remaining binding at 10 µM ([18]; 10 µM i-CDK9): 100%
- remaining binding at 1 µM ([19]; 1 µM i-CDK9): 99%
- remaining binding at 10 µM ([19]; 10 µM i-CDK9): 100%
- remaining binding at 1 µM [20]: 100%
- remaining binding at 1 µM ([21]; 1 µM i-CDK9): 93%
- remaining binding at 10 µM ([21]; 10 µM i-CDK9): 84%
- remaining binding at 1 µM ([22]; 1 µM i-CDK9): 99%
- remaining binding at 10 µM ([22]; 10 µM i-CDK9): 75%
- remaining binding at 1 µM ([23]; 1 µM i-CDK9): 68%
- remaining binding at 10 µM ([23]; 10 µM i-CDK9): 72%
